Common to all, as to type: biochemical
In one assay the target is T1, CDK4/CycD1 (Homo sapiens, UniProt P11802).
T1 construct: host or cells: Sf9 insect cells (baculovirus)
The assay is described as follows: Radiometric protein kinase assay, CDK4/CycD1. Conditions: 1 μM ATP; read-out: Inhibitory activity (IC50:μM) CDK4/CycD1. The source says:
(§1) All protein kinases were expressed in Sf9 insect cells as human recombinant GST-fusion proteins or His-tagged proteins by means of the baculovirus expression system. Kinases were purified by affinity chromatography using either GSH-agarose (Sigma) or Ni-NTH-agarose (Qiagen). The purity of each kinase was checked by SDS-PAGE/silver staining and the identity of each kinase was verified by western blot analysis with kinase specific antibodies or by mass spectroscopy.
(§2) A radiometric protein kinase assay (^33PanQinase® Activity Assay) was used for measuring the kinase activity of the 24 protein kinases. All kinase assays were performed in 96-well FlashPlates™ from Perkin Elmer (Boston, Mass., USA) in a 50 μl reaction volume. The reaction cocktail was pipetted in 4 steps in the following order: • 20 μl of assay buffer • 5 μl of ATP solution (in H2O) • 5 μl of test compound (in 10% DMSO) • 10 μl of substrate/10 […] of enzyme solution (premixed)
(§3) The assay for all enzymes contained 60 mM HEPES-NaOH, pH 7.5, 3 mM MgCl2, 3 mM MnCl2, 3 μM Na-orthovanadate, 1.2 mM DTT, 50 μg/ml PEG20000, 1 μM [γ-^33P]-ATP (approx. 5×10^05 cpm per well).
(§4) For the 24 kinase assays, the following amounts of enzyme and substrate were used per well:
(§5) The reaction cocktails were incubated at 30° C. for 80 minutes. The reaction was stopped with 50 μl of 2% (v/v) H3PO4, plates were aspirated and washed two times with 200 μl of 0.9% (w/v) NaCl or 200 μl H2O. Incorporation of ^33Pi was determined with a microplate scintillation counter (Microbeta Trilux, Wallac).
(§6) The median value of the counts in column 1 (n=8) of each assay plate was defined as “low control”. This value reflects unspecific binding of radioactivity to the plate in the absence of a protein kinase but in the presence of the substrate. The median value of the counts in column 7 of each assay plate (n=8) was taken as the “high control”, i.e. full activity in the absence of any inhibitor. The difference between high and low control was taken as 100% activity.
(§7) As part of the data evaluation the low control value from a particular plate was subtracted from the high control value as well as from all 80 “compound values” of the corresponding plate. The residual activity (in %) for each well of a particular plate was calculated by using the following formula: Res. Activity (%)=100×[(cpm of compound−low control)/(high control−low control)]
(§8) The residual activities for each concentration and the compound IC50 values were calculated using Quattro Workflow V2.1.0.0 (Quattro Research GmbH, Munich, Germany; www.quattro-research.com). The model used was “Sigmoidal response (variable slope)” with parameters “top” fixed at 100% and “bottom” at 0%.

A further assay addresses T2, EPHB4 (Homo sapiens, UniProt P54760).
T2 construct: host or cells: Sf9 insect cells (baculovirus)
T2 sequence (P54760 16-987): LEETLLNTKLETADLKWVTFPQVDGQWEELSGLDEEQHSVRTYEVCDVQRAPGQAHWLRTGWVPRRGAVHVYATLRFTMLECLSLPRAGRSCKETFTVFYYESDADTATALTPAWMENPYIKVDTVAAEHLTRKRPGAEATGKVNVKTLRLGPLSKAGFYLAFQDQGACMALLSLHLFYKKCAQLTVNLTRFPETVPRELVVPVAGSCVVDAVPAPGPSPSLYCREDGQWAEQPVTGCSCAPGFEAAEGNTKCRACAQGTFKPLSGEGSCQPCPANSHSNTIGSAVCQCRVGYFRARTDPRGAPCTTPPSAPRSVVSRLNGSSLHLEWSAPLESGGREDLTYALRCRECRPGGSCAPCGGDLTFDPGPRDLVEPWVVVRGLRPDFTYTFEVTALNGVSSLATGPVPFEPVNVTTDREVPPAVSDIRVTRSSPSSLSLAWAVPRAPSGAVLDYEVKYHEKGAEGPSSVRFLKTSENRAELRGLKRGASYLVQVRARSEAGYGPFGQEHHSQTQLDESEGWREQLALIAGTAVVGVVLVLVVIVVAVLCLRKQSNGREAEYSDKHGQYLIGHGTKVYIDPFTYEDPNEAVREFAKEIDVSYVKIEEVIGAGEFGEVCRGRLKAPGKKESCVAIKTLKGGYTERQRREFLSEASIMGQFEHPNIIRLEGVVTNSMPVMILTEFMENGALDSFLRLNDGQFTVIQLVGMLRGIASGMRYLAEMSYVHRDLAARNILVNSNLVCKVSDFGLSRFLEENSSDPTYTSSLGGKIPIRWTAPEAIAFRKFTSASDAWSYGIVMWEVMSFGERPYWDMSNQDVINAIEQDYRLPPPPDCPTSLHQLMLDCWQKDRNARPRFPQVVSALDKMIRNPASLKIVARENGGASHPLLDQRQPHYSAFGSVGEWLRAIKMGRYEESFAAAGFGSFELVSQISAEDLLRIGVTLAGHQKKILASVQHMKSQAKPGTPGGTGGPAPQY
The assay is described as follows: Radiometric protein kinase assay, EPHB4. Conditions: 1 μM ATP; read-out: Inhibitory activity (IC50:μM) EPHB4.
Text: as §1, §2, §3, §4, §5, §6, §7, §8

Another assay concerns the target T3, VEGF-R2 (Homo sapiens, UniProt P35968).
T3 construct: host or cells: Sf9 insect cells (baculovirus)
Description: Radiometric protein kinase assay, VEGF-R2. Conditions: 1 μM ATP; read-out: Inhibitory activity (IC50:μM) VEGF-R2.
Text: as §1, §2, §3, §4, §5, §6, §7, §8

The target of the next assay is T4, VEGF-R3 (Homo sapiens, UniProt P35916).
T4 construct: host or cells: Sf9 insect cells (baculovirus)
T4 sequence (P35916 25-1363): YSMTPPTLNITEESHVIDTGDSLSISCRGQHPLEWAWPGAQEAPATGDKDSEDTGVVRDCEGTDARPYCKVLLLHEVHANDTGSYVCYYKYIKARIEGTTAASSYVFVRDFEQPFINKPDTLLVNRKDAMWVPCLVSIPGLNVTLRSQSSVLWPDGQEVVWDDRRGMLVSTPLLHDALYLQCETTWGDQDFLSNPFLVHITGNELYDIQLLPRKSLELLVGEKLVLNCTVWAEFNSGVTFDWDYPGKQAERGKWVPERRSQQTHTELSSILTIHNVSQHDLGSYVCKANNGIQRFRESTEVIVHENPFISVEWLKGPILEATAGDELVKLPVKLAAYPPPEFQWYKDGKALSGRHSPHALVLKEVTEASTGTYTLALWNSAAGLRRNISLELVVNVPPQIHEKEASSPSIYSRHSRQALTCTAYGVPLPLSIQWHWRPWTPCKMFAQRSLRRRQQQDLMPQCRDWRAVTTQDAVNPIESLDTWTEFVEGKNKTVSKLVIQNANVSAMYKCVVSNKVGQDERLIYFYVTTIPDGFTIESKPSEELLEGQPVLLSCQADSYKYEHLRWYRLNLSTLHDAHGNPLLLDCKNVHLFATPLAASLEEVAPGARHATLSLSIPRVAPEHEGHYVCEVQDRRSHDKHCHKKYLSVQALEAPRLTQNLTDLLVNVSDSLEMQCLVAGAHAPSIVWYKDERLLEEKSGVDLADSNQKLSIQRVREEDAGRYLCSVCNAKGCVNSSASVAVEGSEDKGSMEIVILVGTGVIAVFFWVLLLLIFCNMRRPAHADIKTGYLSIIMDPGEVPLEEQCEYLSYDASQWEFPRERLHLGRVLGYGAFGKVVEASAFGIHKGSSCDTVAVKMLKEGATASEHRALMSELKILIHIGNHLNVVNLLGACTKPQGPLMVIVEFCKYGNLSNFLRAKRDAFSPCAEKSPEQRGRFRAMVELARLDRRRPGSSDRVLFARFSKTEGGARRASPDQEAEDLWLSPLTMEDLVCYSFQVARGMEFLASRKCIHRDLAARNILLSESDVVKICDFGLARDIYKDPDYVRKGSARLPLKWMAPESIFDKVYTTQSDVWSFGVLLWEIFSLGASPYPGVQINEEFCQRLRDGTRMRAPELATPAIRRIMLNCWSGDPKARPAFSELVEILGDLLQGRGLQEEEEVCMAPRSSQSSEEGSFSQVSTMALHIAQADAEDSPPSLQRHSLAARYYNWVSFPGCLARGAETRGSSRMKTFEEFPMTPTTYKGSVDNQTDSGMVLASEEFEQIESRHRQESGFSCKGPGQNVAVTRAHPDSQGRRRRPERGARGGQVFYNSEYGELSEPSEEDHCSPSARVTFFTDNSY
The assay is described as follows: Radiometric protein kinase assay, VEGF-R3. Conditions: 1 μM ATP; read-out: Inhibitory activity (IC50:μM) VEGF-R3.
Text: as §1, §2, §3, §4, §5, §6, §7, §8

A further assay deals with T5, Aurora-B (Homo sapiens, UniProt Q96GD4).
T5 construct: host or cells: Sf9 insect cells (baculovirus)
T5 sequence (Q96GD4 whole entry): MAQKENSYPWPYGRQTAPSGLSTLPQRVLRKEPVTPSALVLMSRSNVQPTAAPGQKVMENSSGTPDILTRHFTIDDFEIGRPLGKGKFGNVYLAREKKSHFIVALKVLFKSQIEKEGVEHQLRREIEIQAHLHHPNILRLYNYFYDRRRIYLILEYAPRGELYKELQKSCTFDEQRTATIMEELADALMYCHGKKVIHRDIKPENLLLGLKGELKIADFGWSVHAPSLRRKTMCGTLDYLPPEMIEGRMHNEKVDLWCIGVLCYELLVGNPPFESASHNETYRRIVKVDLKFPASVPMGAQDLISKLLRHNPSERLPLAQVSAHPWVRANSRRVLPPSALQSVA
The assay is described as follows: Radiometric protein kinase assay, Aurora-B. Conditions: 1 μM ATP; read-out: Inhibitory activity (IC50:μM) Aurora-B.
Text: as §1, §2, §3, §4, §5, §6, §7, §8

Another assay has as its target T6, MET (Homo sapiens, UniProt P08581).
T6 construct: host or cells: Sf9 insect cells (baculovirus)
Description: Radiometric protein kinase assay, MET. Conditions: 1 μM ATP; read-out: Inhibitory activity (IC50:μM) MET.
Text: as §1
(§9) A radiometric protein kinase assay (^33PanQinase® Activity Assay) was used for measuring the kinase activity of the 24 protein kinases. All kinase assays were performed in 96-well FlashPlates™ from Perkin Elmer (Boston, Mass., USA) in a 50 μl reaction volume. The reaction cocktail was pipetted in 4 steps in the following order: • 20 μl of assay buffer • 5 μl of ATP solution (in H2O) • 5 μl of test compound (in 10% DMSO) • 10 μl of substrate/10 […] of enzyme solution (premixed) […]
(§10) The reaction cocktails were incubated at 30° C. for 80 minutes. […] Incorporation of ^33Pi was determined with a microplate scintillation counter (Microbeta Trilux, Wallac).
(§11) The median value of the counts in column 1 (n=8) of each assay plate was defined as “low control”. This value reflects unspecific binding of radioactivity to the plate in the absence of a protein kinase but in the presence of the substrate. […]
as §7
(§12) The residual activities for each concentration and the compound IC50 values were calculated using Quattro Workflow V2.1.0.0 (Quattro Research GmbH, Munich, Germany; www.quattro-research.com). […]

The next assay concerns the target T7, TIE2 (Homo sapiens, UniProt Q02763).
T7 construct: host or cells: Sf9 insect cells (baculovirus)
Description: Radiometric protein kinase assay, TIE2. The settings on record: 1 μM ATP; read-out: Inhibitory activity (IC50:μM) TIE2.
Text: as §1, §9, §10, §11, §7, §12

SMILES strings stand for the structures.

T3 sequence (P35968 20-1356): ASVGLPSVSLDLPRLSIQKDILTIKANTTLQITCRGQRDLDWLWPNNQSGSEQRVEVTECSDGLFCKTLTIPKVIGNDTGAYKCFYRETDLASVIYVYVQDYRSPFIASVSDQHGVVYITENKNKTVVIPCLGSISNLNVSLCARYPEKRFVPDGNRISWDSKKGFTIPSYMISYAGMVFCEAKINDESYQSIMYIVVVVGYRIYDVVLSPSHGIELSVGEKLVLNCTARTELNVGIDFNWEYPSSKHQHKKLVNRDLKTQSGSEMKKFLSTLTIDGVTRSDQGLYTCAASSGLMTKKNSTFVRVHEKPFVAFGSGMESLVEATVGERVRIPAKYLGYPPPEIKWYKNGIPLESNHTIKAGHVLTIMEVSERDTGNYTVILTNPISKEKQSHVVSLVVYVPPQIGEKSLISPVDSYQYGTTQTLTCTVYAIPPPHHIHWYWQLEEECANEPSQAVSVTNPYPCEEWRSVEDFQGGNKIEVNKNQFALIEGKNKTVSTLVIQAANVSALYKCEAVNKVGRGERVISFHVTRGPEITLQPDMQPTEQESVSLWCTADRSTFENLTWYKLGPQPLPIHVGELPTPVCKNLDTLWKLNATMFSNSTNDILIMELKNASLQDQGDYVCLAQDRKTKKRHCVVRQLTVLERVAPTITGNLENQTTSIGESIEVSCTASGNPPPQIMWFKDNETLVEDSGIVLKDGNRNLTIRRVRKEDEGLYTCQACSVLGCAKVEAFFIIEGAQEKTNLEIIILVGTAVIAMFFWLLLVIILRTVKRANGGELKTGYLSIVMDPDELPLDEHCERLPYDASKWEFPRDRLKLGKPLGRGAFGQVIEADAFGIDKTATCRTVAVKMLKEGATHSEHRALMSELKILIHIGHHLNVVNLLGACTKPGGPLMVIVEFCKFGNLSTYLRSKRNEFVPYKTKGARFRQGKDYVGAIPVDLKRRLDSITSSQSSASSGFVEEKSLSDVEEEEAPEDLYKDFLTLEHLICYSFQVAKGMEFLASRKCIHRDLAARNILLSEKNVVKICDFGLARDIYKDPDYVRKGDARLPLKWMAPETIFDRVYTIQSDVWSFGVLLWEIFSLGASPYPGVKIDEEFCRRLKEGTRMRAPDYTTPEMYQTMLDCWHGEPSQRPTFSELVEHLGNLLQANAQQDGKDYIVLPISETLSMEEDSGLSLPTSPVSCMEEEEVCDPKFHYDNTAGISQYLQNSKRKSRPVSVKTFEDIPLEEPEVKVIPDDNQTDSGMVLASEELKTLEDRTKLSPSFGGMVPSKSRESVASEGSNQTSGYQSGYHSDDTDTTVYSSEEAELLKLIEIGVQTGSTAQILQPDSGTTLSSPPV
T1 sequence (P11802 whole entry): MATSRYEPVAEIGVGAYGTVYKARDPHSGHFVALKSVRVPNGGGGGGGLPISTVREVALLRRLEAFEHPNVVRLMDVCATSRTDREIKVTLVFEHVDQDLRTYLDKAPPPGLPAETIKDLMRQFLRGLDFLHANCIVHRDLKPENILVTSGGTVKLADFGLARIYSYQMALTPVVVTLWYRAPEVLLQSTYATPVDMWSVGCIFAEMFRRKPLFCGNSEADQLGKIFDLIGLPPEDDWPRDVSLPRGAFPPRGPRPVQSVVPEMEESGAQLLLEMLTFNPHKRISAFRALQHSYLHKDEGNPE
T1 sequence (P24385 whole entry partner): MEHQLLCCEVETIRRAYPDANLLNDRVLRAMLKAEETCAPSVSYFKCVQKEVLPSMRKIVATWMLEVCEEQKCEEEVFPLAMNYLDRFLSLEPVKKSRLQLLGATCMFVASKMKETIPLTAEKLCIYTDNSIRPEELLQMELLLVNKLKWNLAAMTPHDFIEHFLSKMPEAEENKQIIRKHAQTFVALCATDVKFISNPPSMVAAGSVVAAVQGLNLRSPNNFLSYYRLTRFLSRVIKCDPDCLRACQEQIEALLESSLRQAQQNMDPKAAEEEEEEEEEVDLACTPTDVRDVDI
T7 sequence (Q02763 23-1124): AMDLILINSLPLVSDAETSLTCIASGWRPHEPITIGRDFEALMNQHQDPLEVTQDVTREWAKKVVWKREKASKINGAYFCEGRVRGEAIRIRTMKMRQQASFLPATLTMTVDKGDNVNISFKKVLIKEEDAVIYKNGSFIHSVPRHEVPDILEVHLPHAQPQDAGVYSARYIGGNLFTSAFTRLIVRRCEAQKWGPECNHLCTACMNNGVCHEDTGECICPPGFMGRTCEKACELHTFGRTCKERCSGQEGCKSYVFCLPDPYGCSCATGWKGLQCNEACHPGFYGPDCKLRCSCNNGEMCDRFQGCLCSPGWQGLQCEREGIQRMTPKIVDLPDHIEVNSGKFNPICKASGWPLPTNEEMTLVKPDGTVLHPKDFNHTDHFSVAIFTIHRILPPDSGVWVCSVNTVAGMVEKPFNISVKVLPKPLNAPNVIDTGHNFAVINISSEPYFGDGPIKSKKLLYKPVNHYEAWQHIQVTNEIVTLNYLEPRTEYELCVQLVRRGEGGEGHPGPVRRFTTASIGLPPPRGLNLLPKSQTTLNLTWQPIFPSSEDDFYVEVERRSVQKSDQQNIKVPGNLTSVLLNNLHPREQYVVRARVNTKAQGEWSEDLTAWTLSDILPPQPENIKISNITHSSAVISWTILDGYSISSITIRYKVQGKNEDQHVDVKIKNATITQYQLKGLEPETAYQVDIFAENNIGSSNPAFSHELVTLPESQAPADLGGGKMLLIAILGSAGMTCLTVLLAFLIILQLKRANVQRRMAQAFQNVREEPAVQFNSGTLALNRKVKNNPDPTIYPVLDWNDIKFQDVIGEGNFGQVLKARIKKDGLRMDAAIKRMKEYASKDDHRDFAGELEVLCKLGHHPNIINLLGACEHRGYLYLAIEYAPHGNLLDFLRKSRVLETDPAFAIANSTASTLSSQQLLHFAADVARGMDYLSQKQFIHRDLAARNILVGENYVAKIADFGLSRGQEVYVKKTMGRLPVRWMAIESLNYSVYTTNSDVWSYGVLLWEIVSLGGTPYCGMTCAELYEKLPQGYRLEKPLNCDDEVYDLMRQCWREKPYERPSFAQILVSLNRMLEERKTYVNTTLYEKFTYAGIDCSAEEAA

Turning to `O=C1/C=C/CCC2OC2C[C@H](c2ccccc2)OC(=O)c2c(O)cc(O)c(Cl)c2C1` (some centres unmarked) [A-5], the IC50 was 45 µM at CDK4/CycD1, 49 µM on EPHB4, 19 µM at VEGF-R2 and 31 µM at VEGF-R3.

With `O=C1Cc2c(Cl)c(O)cc(O)c2C(=O)O[C@H](c2ccccc2)C/C=C/CCC(Cl)C1` (some centres unmarked) [A-3], the IC50 at Aurora-B is 14 µM; at CDK4/CycD1 it was 30 µM; at EPHB4, 40 µM; at VEGF-R2, 20 µM; at VEGF-R3, 19 µM; on MET it was 29 µM. The IC50 on TIE2 stood at 15 µM.

On to `O=C1/C=C/CCC2OC2C[C@@H](Cc2ccccc2)OC(=O)c2c(O)cc(O)cc2C1` (some centres unmarked) [A-6], for which the IC50 at Aurora-B came to 16 µM; at CDK4/CycD1, 37 µM; on EPHB4, 40 µM; at VEGF-R2, 25 µM; at VEGF-R3, 34 µM; at MET, 36 µM. Moreover, the IC50 on TIE2 stood at 25 µM.

Regarding `CC(C)[C@@H]1CC2OC2CC/C=C/C(=O)Cc2c(Cl)c(O)cc(O)c2C(=O)O1` (some centres unmarked) [A-4], the IC50 at Aurora-B was 36 µM; at CDK4/CycD1, 48 µM; at VEGF-R2, 30 µM; at VEGF-R3 it was 31 µM.

On to `COC1CC/C=C/C[C@H](c2ccccc2)OC(=O)c2c(O)cc(O)c(Cl)c2CC(=O)C1` (some centres unmarked) [A-2], for which the IC50 at Aurora-B was 16 µM; on CDK4/CycD1, 50 µM; on EPHB4 it was 16 µM; at VEGF-R2, 19 µM; at VEGF-R3, 40 µM; on MET it was 32 µM. Further, the IC50 at TIE2 worked out at 16 µM.

(Values after patent US8450305B2, “Macrocyclic compounds useful as inhibitors of kinases and HSP90” (Universite de Strasbourg, priority 2006, dated 2013).)
